From patent US10350271B2, “Lipidated peptides for lowering blood glucose” (USTAV ORGANICKE CHEMIE A BIOCHEMIE AKADEMIE VED CR, V.V.I., priority 2014, dated 2019)
Square brackets hold non-standard residues; d marks the D form. Ends that are not written are not given here. Peptide text beside a SMILES is read from it. * marks the point of attachment. Phe(4-NO2) = N[C@@H](Cc1ccc([N+](=O)[O-])cc1)C(=O)O; 1Nal = N[C@@H](Cc1cccc2ccccc12)C(=O)O; Palmitoyl = CCCCCCCCCCCCCCCC(=O)*; Myristoyl = CCCCCCCCCCCCCC(=O)*; Decanoyl = CCCCCCCCCC(=O)*; Nle = CCCC[C@H](N)C(=O)O

Columns and labels:
C57BL/6 mice = assay: Food intake in fasted mice after SC injection; format: in vivo; details: 5 mg/kg SC, 45 min after injection
Description: NMRI mice, C57BL/6 mice, and Wistar rats (AnLab, Prague, Czech Republic) were housed in a temperature of 23° C. and a daily cycle of 12 h light and dark (light from 6:00). They were given ad libitum water and a standard chow diet that contained 25, 9 and 66% of calories of protein, fat and carbohydrate respectively. Energy content of the feed was 3.4 kcal/g (St-1, Mlýn Kocanda, Czech Republic). Db/db mice and their controls (C57BL/6 background) were obtained from Taconic (Denmark), housed under the same conditions as described above, and fed by Altromin (Taconic, Denmark). ZDF-Lepr^fa/Crl, diabetic fa/fa male rats were obtained from Charles River (France), housed under same conditions as described above, and fed with a Purina 5008 diet (IPS Product Supplies Limited, UK). All experiments followed the ethical guidelines for animal experiments and the law of the Czech Republic Nr. 246/1992.
In experiments with C57BL/6 mice or Wistar rats, food intake was measured with overnight fasted animals in individual cages. Food was withdrawn 17 hours prior to injection of lipidated analog of prolactin releasing peptide (PrRP); free access to water was maintained. The administration of either saline, PrRP, or lipidated analogs was performed by SC injection at doses of 1-10 mg/kg (which corresponded to a volume of 0.2 ml/mouse and 0.1 ml/100 g weight of rat). Fifteen minutes after the lipidated analog of prolactin releasing peptide (PrRP) administration, the mice were given pre-weighed food. The food was then weighed every 30 minutes for 5-10 hours. The administration of each dose was performed at least twice, and each group of mice consisted of at least 6 mice.

[1] = target: T1, human PrRP receptor GPR10 (Homo sapiens, UniProt P49683); assay: Competitive binding in CHO cells transfected with human GPR10 (human 125I-PrRP31); details: for % of PrRP31, GPR10 human receptor transfected in CHO cells: affinity relative to PrRP31; for Ki: CHO cells, human 125I-PrRP31, read-out: Ki, GPR10 human receptor transfected in CHO cells
T1 construct: host or cells: CHO cells
T1 sequence (P49683 1-370): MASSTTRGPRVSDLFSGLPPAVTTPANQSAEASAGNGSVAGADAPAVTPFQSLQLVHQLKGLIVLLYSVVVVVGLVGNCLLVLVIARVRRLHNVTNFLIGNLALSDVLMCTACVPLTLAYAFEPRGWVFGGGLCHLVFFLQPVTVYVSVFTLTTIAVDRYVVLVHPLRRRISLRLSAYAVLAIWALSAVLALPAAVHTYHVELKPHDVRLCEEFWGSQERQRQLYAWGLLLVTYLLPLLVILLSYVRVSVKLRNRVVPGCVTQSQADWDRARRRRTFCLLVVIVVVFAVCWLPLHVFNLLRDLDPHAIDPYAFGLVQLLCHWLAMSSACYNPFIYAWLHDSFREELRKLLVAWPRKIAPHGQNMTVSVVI
Outline: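 Values from one-site nonlinear regression of displacement curves: analogs (final 10^-11 to 10^-4 mol·l^-1) competed with 125I-PrRP31 (final 5×10^-11 mol·l^-1) on adherent human GPR10 CHO cells. Binding ran 1 h at room temperature, pH 7.4 buffer with NaCl, MgCl2, CaCl2, glucose, BSA; cell-bound radioactivity counted after NaOH lysis.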

rat PrRP receptor = target: T2, rat PrRP receptor (Rattus norvegicus, UniProt Q64121); assay: Competitive binding in RC-4B/C rat pituitary cells (125I-rat PrRP31); details: for % of PrRP31, RC-4B/C rat pituitary cells: affinity relative to PrRP31; for Ki: displacement of 125I-rat PrRP31, read-out: Ki, RC-4B/C rat pituitary cells ^25I-rat PrRP31
T2 construct: host or cells: RC-4B/C rat pituitary cell line
T2 sequence (Q64121 1-370): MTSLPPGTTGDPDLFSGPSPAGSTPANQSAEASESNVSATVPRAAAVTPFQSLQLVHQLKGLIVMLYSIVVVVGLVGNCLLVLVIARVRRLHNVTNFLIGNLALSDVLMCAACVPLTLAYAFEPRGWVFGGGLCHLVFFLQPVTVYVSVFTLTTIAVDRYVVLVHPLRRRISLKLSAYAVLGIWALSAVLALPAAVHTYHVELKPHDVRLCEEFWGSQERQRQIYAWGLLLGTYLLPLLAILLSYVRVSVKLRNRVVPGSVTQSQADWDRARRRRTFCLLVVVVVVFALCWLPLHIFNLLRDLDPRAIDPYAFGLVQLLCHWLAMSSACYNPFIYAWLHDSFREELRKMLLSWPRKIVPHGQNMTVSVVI
Outline: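 Displacement of rat 125I-PrRP31 ([…]) by test analogs, 10^−11–10^−4 mol·l^−1, on whole RC-4B/C cells, 60 min RT. Bound counts measured by γ-counter in duplicate, ≥3 repeats, analyzed by nonlinear one-site binding regression.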

% of PrRP31, GPR10 human receptor transfected in CHO cells [1] | % of PrRP31, RC-4B/C rat pituitary cells (rat PrRP receptor) | Ki (rat PrRP receptor; RC-4B/C cells) | Ki [1] | Displacement of human 125I-PrRP binding ([1]; human GPR10 receptor) | Displacement of rat 125I-PrRP binding (rat PrRP receptor; RC-4B/C cells, rat PrRP receptor) | Molecule | Food intake in mice % of saline-treated group (C57BL/6 mice)
91% | 111% | – | – | – | – | CCCCCCCCCCCCCCCC(=O)N[C@@H](CO)C(=O)N[C@@H](CCCNC(=N)N)C(=O)N[C@@H](C)C(=O)N[C@@H](Cc1c[nH]cn1)C(=O)N[C@@H](CCC(N)=O)C(=O)N[C@@H](Cc1c[nH]cn1)C(=O)N[C@@H](CO)C(=O)N[C@@H](CCCC)C(=O)N[C@@H](CCC(=O)O)C(=O)N[C@H](C(=O)N[C@@H](CCCNC(=N)N)C(=O)N[C@H](C(=O)N1CCC[C@H]1C(=O)N[C@@H](CC(=O)O)C(=O)N[C@H](C(=O)N[C@@H](CC(N)=O)C(=O)N1CCC[C@H]1C(=O)N[C@@H](C)C(=O)N[C@@H](Cc1c[nH]c2ccccc12)C(=O)N[C@@H](Cc1ccc(O)cc1)C(=O)N[C@H](C(=O)NCC(=O)N[C@@H](CCCNC(=N)N)C(=O)NCC(=O)N[C@H](C(=O)N[C@@H](CCCNC(=N)N)C(=O)N1CCC[C@H]1C(=O)N[C@H](C(=O)NCC(=O)N[C@@H](CCCNC(=N)N)C(=O)N[C@@H](Cc1cccc2ccccc12)C(N)=O)C(C)C)[C@@H](C)CC)[C@@H](C)O)[C@@H](C)CC)[C@@H](C)O)[C@@H](C)O [Analog 12] (Palmitoyl-SRAHQHS[Nle]ETRTPDINPAWYTGRGIRPVGR[1Nal]-NH2) | 13%
83% | 1027% | 0.48 ± 0.18 nM | – | – | – | CCCCCCCCCCCCCC(=O)N[C@@H](CO)C(=O)N[C@@H](CCCNC(=N)N)C(=O)N[C@H](C(=O)N[C@@H](Cc1c[nH]cn1)C(=O)N[C@@H](CCCNC(=N)N)C(=O)N[C@@H](Cc1c[nH]cn1)C(=O)N[C@@H](CO)C(=O)N[C@@H](CCSC)C(=O)N[C@@H](CCC(=O)O)C(=O)N[C@H](C(=O)N[C@@H](CCCNC(=N)N)C(=O)N[C@H](C(=O)N1CCC[C@H]1C(=O)N[C@@H](CC(=O)O)C(=O)N[C@H](C(=O)N[C@@H](CC(N)=O)C(=O)N1CCC[C@H]1C(=O)N[C@@H](C)C(=O)N[C@@H](Cc1c[nH]c2ccccc12)C(=O)N[C@@H](Cc1ccc(O)cc1)C(=O)N[C@@H](C)C(=O)N[C@@H](CO)C(=O)N[C@@H](CCCNC(=N)N)C(=O)NCC(=O)N[C@H](C(=O)N[C@@H](CCCNC(=N)N)C(=O)N1CCC[C@H]1C(=O)N[C@H](C(=O)NCC(=O)N[C@@H](CCCNC(=N)N)C(=O)N[C@@H](Cc1ccccc1)C(N)=O)C(C)C)[C@@H](C)CC)[C@@H](C)CC)[C@@H](C)O)[C@@H](C)CC)[C@@H](C)O [Analog 42] | 10%
505% | 850% | 0.58 ± 0.1 nM | 0.77 ± 0.28 nM | – | – | CCCCCCCCCCCCCCCC(=O)N[C@@H](CO)C(=O)N[C@@H](CCCNC(=N)N)C(=O)N[C@@H](C)C(=O)N[C@@H](Cc1c[nH]cn1)C(=O)N[C@@H](CCC(N)=O)C(=O)N[C@@H](Cc1c[nH]cn1)C(=O)N[C@@H](CO)C(=O)N[C@@H](CCCC)C(=O)N[C@@H](CCC(=O)O)C(=O)N[C@H](C(=O)N[C@@H](CCCNC(=N)N)C(=O)N[C@H](C(=O)N1CCC[C@H]1C(=O)N[C@@H](CC(=O)O)C(=O)N[C@H](C(=O)N[C@@H](CC(N)=O)C(=O)N1CCC[C@H]1C(=O)N[C@@H](C)C(=O)N[C@@H](Cc1c[nH]c2ccccc12)C(=O)N[C@@H](Cc1ccc(O)cc1)C(=O)N[C@H](C(=O)NCC(=O)N[C@@H](CCCNC(=N)N)C(=O)NCC(=O)N[C@H](C(=O)N[C@@H](CCCNC(=N)N)C(=O)N1CCC[C@H]1C(=O)N[C@H](C(=O)NCC(=O)N[C@@H](CCCNC(=N)N)C(=O)N[C@@H](Cc1ccc([N+](=O)[O-])cc1)C(N)=O)C(C)C)[C@@H](C)CC)[C@@H](C)O)[C@@H](C)CC)[C@@H](C)O)[C@@H](C)O [Analog 18] (Palmitoyl-SRAHQHS[Nle]ETRTPDINPAWYTGRGIRPVGR[Phe(4-NO2)]-NH2) | 0.7%
129% | 1202% | 0.41 ± 0.01 nM | 3.02 ± 0.49 nM | nmol·l^−1 range | nmol·l^−1 range | CCCCCCCCCC(=O)N[C@H](C(=O)N1CCC[C@H]1C(=O)N[C@@H](CC(=O)O)C(=O)N[C@H](C(=O)N[C@@H](CC(N)=O)C(=O)N1CCC[C@H]1C(=O)N[C@@H](C)C(=O)N[C@@H](Cc1c[nH]c2ccccc12)C(=O)N[C@@H](Cc1ccc(O)cc1)C(=O)N[C@@H](C)C(=O)N[C@@H](CO)C(=O)N[C@@H](CCCNC(=N)N)C(=O)NCC(=O)N[C@H](C(=O)N[C@@H](CCCNC(=N)N)C(=O)N1CCC[C@H]1C(=O)N[C@H](C(=O)NCC(=O)N[C@@H](CCCNC(=N)N)C(=O)N[C@@H](Cc1ccccc1)C(N)=O)C(C)C)[C@@H](C)CC)[C@@H](C)CC)[C@@H](C)O [Analog 40] (Decanoyl-TPDINPAWYASRGIRPVGRF-NH2) | 100%
133% | 632% | – | 2.93 ± 0.2 nM | – | – | CCCCCCCCCCCCCC(=O)N[C@H](C(=O)N1CCC[C@H]1C(=O)N[C@@H](CC(=O)O)C(=O)N[C@H](C(=O)N[C@@H](CC(N)=O)C(=O)N1CCC[C@H]1C(=O)N[C@@H](C)C(=O)N[C@@H](Cc1c[nH]c2ccccc12)C(=O)N[C@@H](Cc1ccc(O)cc1)C(=O)N[C@H](C(=O)NCC(=O)N[C@@H](CCCNC(=N)N)C(=O)NCC(=O)N[C@H](C(=O)N[C@@H](CCCNC(=N)N)C(=O)N1CCC[C@H]1C(=O)N[C@H](C(=O)NCC(=O)N[C@@H](CCCNC(=N)N)C(=O)N[C@@H](Cc1ccccc1)C(N)=O)C(C)C)[C@@H](C)CC)[C@@H](C)O)[C@@H](C)CC)[C@@H](C)O [Analog 1] (Myristoyl-TPDINPAWYTGRGIRPVGRF-NH2) | 32%
1.5% | 4.6% | 123 ± 16.1 nM | 262 ± 55.4 nM | – | – | CCCCCCCCCCCCCC(=O)N[C@@H](CO)C(=O)N[C@@H](Cc1c[nH]cn1)C(=O)N[C@@H](CCC(N)=O)C(=O)N[C@@H](CCCNC(=N)N)C(=O)N1CCC[C@H]1C(=O)N[C@@H](C)C(=O)N[C@@H](CC(=O)O)C(=O)N[C@H](C(=O)N[C@@H](Cc1c[nH]cn1)C(=O)N[C@@H](Cc1c[nH]c2ccccc12)C(=O)N[C@@H](Cc1ccc(O)cc1)C(=O)N1CCC[C@H]1C(=O)N[C@@H](CCCNC(=N)N)C(=O)NCC(=O)N[C@@H](CCCC)C(=O)N[C@@H](Cc1ccccc1)C(=O)N1CCC[C@H]1C(=O)N[C@H](C(=O)N[C@H](C(=O)NCC(=O)N[C@@H](CCCNC(=N)N)C(=O)N[C@H](C(=O)N[C@H](C(=O)N[C@@H](C)C(=O)N[C@@H](CCCNC(=N)N)C(=O)N[C@@H](CC(N)=O)C(=O)NCC(=O)N[C@@H](CCC(=O)O)C(=O)N[C@H](C(=O)N[C@@H](CO)C(=O)N[C@@H](CCCNC(=N)N)C(=O)O)C(C)C)[C@@H](C)O)[C@@H](C)CC)[C@@H](C)CC)[C@@H](C)O)[C@@H](C)O [Analog 20] (Myristoyl-SHQRPADTHWYPRG[Nle]FPTIGRITARNGEVSR-OH; C-terminus assumed) | 100%

Molecule | % of PrRP31, GPR10 human receptor transfected in CHO cells [1] | % of PrRP31, RC-4B/C rat pituitary cells (rat PrRP receptor) | Ki (rat PrRP receptor; RC-4B/C cells) | Ki [1] | Displacement of human 125I-PrRP binding ([1]; human GPR10 receptor) | Displacement of rat 125I-PrRP binding (rat PrRP receptor; RC-4B/C cells, rat PrRP receptor) | Food intake in mice % of saline-treated group (C57BL/6 mice)
SRAHQHSMETRTPDINPAWYTGRGIRPVGRF-NH2 [Rat PrRP31, reference compound] | 100% | 100% | – | – | – | – | 100%
